# Values quoted from earlier work as cited in patent US7977431B2, “Dithiocarbamic esters” (LANXESS Deutschland GmbH, priority 2002, dated 2011).
# Details: pKa of the protonated substituent Z of the regulator, not of the regulator itself
row,Molecule,pKa value e Z-H
1,"CCN(C(=S)SC/C=C(/C)Cl)c1ccccc1 [Regulator compound (6), reference compound]",5.1
2,"CCN(C(=S)SCc1ccccc1)c1ccccc1 [Regulator compound (3), Benzyl ethyl-(phenyl)dithio-carbamate, reference compound]",5.1
3,"CCN(C(=S)SC(C(=O)OC)c1ccccc1)c1ccccc1 (stereo not shown) [Regulator compound (5), Methyl ({[ethyl-(phenyl)amino]-carbonothioyl}-sulphanyl)(phenyl) acetate, reference compound]",5.1
4,"CCN(C(=S)SC(C)C(=O)OC)c1ccccc1 (stereo not shown) [Regulator compound (4), Methyl 2-({[ethyl-(phenyl)amino]-carbonothioyl}-sulphanyl)-propanoate, reference compound]",5.1
5,"C/C(Cl)=C/CSC(=S)n1cccc1 [Regulator compound (1), 3-chloro-2-butenyl 1H-pyrrole-1-carbodithioate]",17.0
6,"C/C(Cl)=C/CSC(=S)n1ccnc1 [Regulator compound (2), 3-chloro-2-butenyl 1H-imidazole-1-carbodithioate]",14.5

# Same assay, conditions: parent form Z-H of substituent Z
row,Molecule,pKa value
1,c1ccc2c(c1)[nH]c1ccccc12 [carbazole],17
2,O=C1CCCCN1 [2-piperidinone],16.6
3,O=C1CCCCCN1 [2-azepanone],16.6
4,c1cn[nH]c1 [pyrazole],14.0
5,N-(methyl/ethyl)acetamide,16.6
6,O=C1CCCCCCN1 [2-azocanone],16.6
7,CC(=O)Nc1ccccc1 [N-phenylacetamide],16.6
